Target: CDK-2 (Homo sapiens, UniProt P24941)
Assay: Fluorescence polarization displacement assay (inhibitory effectiveness toward CDK-2)
Format: binding
Conditions: IC50
Procedure: Fluorescence Polarization Assay
Binding assays were performed in a 384 well Costar NBS coated plate. […] The concentration of BMS-Alexa Fluor647 was 50 nM. Serial dilutions of compounds were added to 12 wells. The final buffer concentration was 10 mM Hepes, pH 7.5, 150 mM NaCl, and 1 mM DTT. Samples were incubated at room temperature for 15 minutes and then read in an Analyst HT instrument using an excitation and emission wavelength of 580 and 680 nm, respectively.

Row | Compound | IC50
1 | COC(=O)[C@@H](Cc1ccc(O)cc1)NC(=O)c1cc(C(=O)O)c2cc(-c3cccc(C(F)(F)F)c3)ccc2n1 [Compound 169] | > 40 µM
2 | COC(=O)[C@H](Cc1ccc(O)cc1)NC(=O)c1cc(C(=O)O)c2cc(-c3ccccc3)ccc2n1 [Compound 73] | < 1 µM
3 | COC(=O)[C@H](Cc1ccc(O)cc1)NC(=O)c1cc(C(=O)O)c2cc(CCc3ccc(Cl)cc3)ccc2n1 [Compound 9] | < 1 µM
4 | CCCCCCc1ccc2nc(C(=O)N[C@@H](Cc3ccc(O)cc3)C(=O)OC)cc(C(=O)O)c2c1 [Compound 4] | < 1 µM
5 | COC(=O)[C@H](Cc1ccc(F)cc1)NC(=O)c1cc(C(=O)O)c2cc(-c3cccc(C(F)(F)F)c3)ccc2n1 [Compound 109] | 1 to 40 µM
6 | COC[C@H](Cc1ccc(O)cc1)NC(=O)c1cc(C(=O)O)c2cc(/C=C/c3ccc(Cl)cc3)ccc2n1 [Compound 16] | < 1 µM
7 | COC(=O)[C@H](Cc1ccc(OC)cc1)NC(=O)c1cc(C(=O)O)c2cc(-c3cccc(C(F)(F)F)c3)ccc2n1 [Compound 162] | > 40 µM
8 | COC(=O)[C@H](Cc1cccc(O)c1)NC(=O)c1cc(C(=O)O)c2cc(-c3cccc(C(F)(F)F)c3)ccc2n1 [Compound 163] | > 40 µM

Same assay, conditions: inhibitory effectiveness toward CDK-2; read-out: IC50

Row | Compound | IC50
9 | CCCCC/C=C/c1ccc2nc(C(=O)N[C@H](COC)Cc3ccc(O)cc3)cc(C(=O)O)c2c1 [Compound 21] | < 1 µM
10 | CCCCCC#Cc1ccc2nc(C(=O)N[C@H](COC)Cc3ccc(O)cc3)cc(C(=O)O)c2c1 [Compound 19] | < 1 µM
11 | COC(=O)[C@H](Cc1ccccc1)NC(=O)c1cc(C(=O)O)c2cc(-c3cccs3)ccc2n1 [Compound 155] | > 40 µM
12 | COC(=O)[C@H](Cc1ccc(O)cc1)NC(=O)c1cc(C(=O)O)c2cc(-c3cc(Cl)cc(Cl)c3)ccc2n1 [Compound 39] | < 1 µM
13 | CC(C)(C)S(=O)(=O)NCc1cc(C(=O)N[C@H](CN)Cc2ccc(O)cc2)nc2ccc(C#Cc3ccccn3)cc12 [Compound 225] | > 40 µM
14 | COC[C@H](Cc1ccc(O)cc1)NC(=O)c1cc(C(=O)O)c2cc(CCCCO)ccc2n1 [Compound 189] | > 40 µM
15 | COC[C@H](Cc1ccc(O)cc1)NC(=O)c1cc(C(=O)O)c2cc(-c3cccc(C(F)(F)F)c3)ccc2n1 [Compound 13] | < 1 µM
16 | COC(=O)[C@H](Cc1ccc(O)cc1)NC(=O)c1cc(C(=O)O)c2cc(/C=C/c3ccc(Cl)cc3)ccc2n1 [Compound 7] | < 1 µM
17 | COC(=O)[C@H](Cc1ccc(O)cc1)NC(=O)c1cc(C(=O)O)c2cc(-c3ccsc3)ccc2n1 [Compound 90] | 1 to 40 µM
18 | COC[C@H](Cc1ccc(O)cc1)NC(=O)c1cc(C(=O)O)c2cc(C#CCCn3cccn3)ccc2n1 [Compound 224] | > 40 µM
19 | COC[C@H](Cc1ccc(O)cc1)NC(=O)c1cc(C(=O)O)c2cc(C#CCCO)ccc2n1 [Compound 186] | > 40 µM
20 | CCCCCCCc1ccc2nc(C(=O)N[C@H](COC)Cc3ccc(O)cc3)cc(C(=O)O)c2c1 [Compound 20] | < 1 µM

Next, values leading:

Row | IC50 | Compound
21 | < 1 µM | COC(=O)[C@H](Cc1ccc(O)cc1)NC(=O)c1cc(C(=O)O)c2cc(-c3ccc(OC(F)(F)F)cc3)ccc2n1 [Compound 3]
22 | > 40 µM | COC[C@H](Cc1ccc(O)cc1)NC(=O)c1cc(C(=O)O)c2cc(-c3cccc(CN4CC[C@@H](O)C4)c3)ccc2n1 [Compound 192]
23 | > 40 µM | O=C(N[C@@H](Cc1ccc(O)cc1)c1nnn[nH]1)c1cc(C(=O)O)c2cc(-c3cccc(C(F)(F)F)c3)ccc2n1 [Compound 170]
24 | < 1 µM | Cc1cnc([C@H](Cc2ccc(O)cc2)NCc2cc(C(=O)O)c3cc(-c4cccc(C(F)(F)F)c4)ccc3n2)o1 [Compound 45]
25 | > 40 µM | COC[C@H](Cc1ccc(O)cc1)NC(=O)c1cc(C(=O)O)c2cc(COc3ccc(Cl)cc3)ccc2n1 [Compound 199]
26 | 1 to 40 µM | COC(=O)[C@@H](NC(=O)c1cc(C(=O)O)c2cc(-c3cccc(C(F)(F)F)c3)ccc2n1)c1ccc(O)cc1 [Compound 122]
27 | > 40 µM | COC[C@H](Cc1ccc(O)cc1)NCc1cc(C(=O)OC[C@@H](N)C(C)C)c2cc(-c3cccc(C(F)(F)F)c3)ccc2n1 [Compound 176]
28 | > 40 µM | COC[C@H](Cc1ccc(O)cc1)NCc1cc(C(=O)OCC(O)CO)c2cc(-c3cccc(C(F)(F)F)c3)ccc2n1 (stereo partly drawn) [Compound 174]
29 | 1 to 40 µM | COC(=O)[C@H](Cc1ccc(O)cc1)NC(=O)c1cc(C(=O)O)c2cc(-c3cccc(O)c3)ccc2n1 [Compound 120]
30 | > 40 µM | COC[C@H](Cc1ccc(O)cc1)NCc1cc(C(=O)OCCO)c2cc(-c3cccc(C(F)(F)F)c3)ccc2n1 [Compound 173]
31 | < 1 µM | CO/N=C\[C@H](Cc1ccc(O)cc1)NC(=O)c1cc(C(=O)O)c2cc(-c3cccc(C(F)(F)F)c3)ccc2n1 [Compound 59]
32 | < 1 µM | COC[C@H](Cc1ccc(O)cc1)NC(=O)c1cc(C(=O)O)c2cc(OCc3ccc(C(F)(F)F)cc3)ccc2n1 [Compound 55]
33 | > 40 µM | COC[C@H](Cc1ccc(O)cc1)NCc1cc(C(=O)OCCN(C)C)c2cc(-c3cccc(C(F)(F)F)c3)ccc2n1 [Compound 175]

Source: patent publication US7511063B2, “High affinity quinoline-based kinase ligands” (Schering Corporation, priority 2006, dated 2009)
